Results: ChEMBL document CHEMBL3877252, “Fluorescein hydrazones: A series of novel non-intercalative topoisomerase IIα catalytic inhibitors induce G1 arrest and apoptosis in breast and colon cancer cells” (Eur J Med Chem, 2017)
Active and inactive are the calls of the source. No cut-off for these calls is given here.

Columns and labels:
[1] = Cell cycle arrest in human HCT15 cells assessed as accumulation at S phase at 10 uM after 20 hrs by DAPI staining-based cell analyzer (reference value: 34%); assay type: functional; details: HCT-15
[2] = Cell cycle arrest in human HCT15 cells assessed as accumulation at G2/M phase at 10 uM after 15 hrs by DAPI staining-based cell analyzer (reference value: 13%); assay type: functional; details: HCT-15
HCT-15 [3] = assay: Induction of apoptosis in human HCT15 cells assessed as decrease in bcl-2 level measured after 24 hrs by Western blot analysis; assay type: functional, cell-based
[4] = Cell cycle arrest in human HCT15 cells assessed as accumulation at G1 phase at 10 uM after 20 hrs by DAPI staining-based cell analyzer (reference value: 40%); assay type: functional; details: HCT-15
[5] = Cell cycle arrest in human HCT15 cells assessed as accumulation at G1 phase at 10 uM after 15 hrs by DAPI staining-based cell analyzer (reference value: 61%); assay type: functional; details: HCT-15
HCT-15 [6] = assay: Induction of apoptosis in human HCT15 cells assessed as increase in bax level measured after 24 hrs by Western blot analysis; assay type: functional, cell-based
[7] = target: DNA topoisomerase 2-alpha (Homo sapiens) (UniProt P11388); assay: Inhibition of topoisomerase-2 alpha catalytic activity in human HCT15 cells assessed as appearance of free protein band at 50 uM measured after 2 hrs by Western blot analysis; assay type: cell-based; details: HCT-15
DNA topoisomerase 2-alpha (Homo sapiens), sequence (P11388 whole entry): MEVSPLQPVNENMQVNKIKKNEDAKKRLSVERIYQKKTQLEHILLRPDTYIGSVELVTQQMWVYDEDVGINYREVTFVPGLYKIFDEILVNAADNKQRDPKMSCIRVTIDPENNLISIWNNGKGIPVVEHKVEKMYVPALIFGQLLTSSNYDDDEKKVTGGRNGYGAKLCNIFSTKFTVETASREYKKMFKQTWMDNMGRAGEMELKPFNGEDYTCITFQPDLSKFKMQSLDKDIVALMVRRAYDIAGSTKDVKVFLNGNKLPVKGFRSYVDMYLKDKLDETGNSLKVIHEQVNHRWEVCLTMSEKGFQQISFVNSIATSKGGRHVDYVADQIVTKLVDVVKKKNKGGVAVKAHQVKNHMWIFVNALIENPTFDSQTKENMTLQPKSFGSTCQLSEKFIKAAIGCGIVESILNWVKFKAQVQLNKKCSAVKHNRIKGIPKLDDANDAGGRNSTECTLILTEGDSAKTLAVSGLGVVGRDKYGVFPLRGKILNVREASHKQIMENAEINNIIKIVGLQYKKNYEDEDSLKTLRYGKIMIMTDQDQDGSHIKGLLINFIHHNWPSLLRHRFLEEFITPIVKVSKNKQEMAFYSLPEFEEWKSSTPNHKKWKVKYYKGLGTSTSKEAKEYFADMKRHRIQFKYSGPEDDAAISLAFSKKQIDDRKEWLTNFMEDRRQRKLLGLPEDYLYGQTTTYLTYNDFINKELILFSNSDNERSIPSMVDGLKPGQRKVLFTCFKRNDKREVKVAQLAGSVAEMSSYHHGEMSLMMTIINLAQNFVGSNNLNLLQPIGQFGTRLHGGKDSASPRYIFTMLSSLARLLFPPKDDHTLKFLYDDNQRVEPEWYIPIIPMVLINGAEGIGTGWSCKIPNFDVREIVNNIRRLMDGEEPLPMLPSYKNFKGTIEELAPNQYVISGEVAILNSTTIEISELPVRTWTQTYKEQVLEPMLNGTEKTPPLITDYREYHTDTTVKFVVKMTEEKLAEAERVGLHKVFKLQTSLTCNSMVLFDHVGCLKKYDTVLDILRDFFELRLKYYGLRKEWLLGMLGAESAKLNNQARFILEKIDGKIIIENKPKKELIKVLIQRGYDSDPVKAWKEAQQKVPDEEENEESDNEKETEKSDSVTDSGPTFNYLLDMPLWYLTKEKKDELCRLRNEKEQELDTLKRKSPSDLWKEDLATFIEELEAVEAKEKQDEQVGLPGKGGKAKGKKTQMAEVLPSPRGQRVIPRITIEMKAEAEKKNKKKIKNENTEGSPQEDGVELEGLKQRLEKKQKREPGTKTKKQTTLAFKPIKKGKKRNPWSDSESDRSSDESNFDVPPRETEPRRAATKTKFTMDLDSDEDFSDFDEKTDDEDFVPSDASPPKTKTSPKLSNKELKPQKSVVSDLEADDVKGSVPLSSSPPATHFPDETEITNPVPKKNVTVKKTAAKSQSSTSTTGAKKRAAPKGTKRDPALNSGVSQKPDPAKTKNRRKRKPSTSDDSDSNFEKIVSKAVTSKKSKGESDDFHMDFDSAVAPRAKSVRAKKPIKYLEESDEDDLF

[8] = target: T1, DNA topoisomerase 1 (Homo sapiens) (UniProt P11387); assay: Inhibition of human topoisomerase-1 assessed as inhibition of relaxation of supercoiled pBR322 plasmid DNA at 20 uM measured after 1 hr by ethidium bromide staining based agarose gel electrophoresis relative to control
T1 sequence (whole entry): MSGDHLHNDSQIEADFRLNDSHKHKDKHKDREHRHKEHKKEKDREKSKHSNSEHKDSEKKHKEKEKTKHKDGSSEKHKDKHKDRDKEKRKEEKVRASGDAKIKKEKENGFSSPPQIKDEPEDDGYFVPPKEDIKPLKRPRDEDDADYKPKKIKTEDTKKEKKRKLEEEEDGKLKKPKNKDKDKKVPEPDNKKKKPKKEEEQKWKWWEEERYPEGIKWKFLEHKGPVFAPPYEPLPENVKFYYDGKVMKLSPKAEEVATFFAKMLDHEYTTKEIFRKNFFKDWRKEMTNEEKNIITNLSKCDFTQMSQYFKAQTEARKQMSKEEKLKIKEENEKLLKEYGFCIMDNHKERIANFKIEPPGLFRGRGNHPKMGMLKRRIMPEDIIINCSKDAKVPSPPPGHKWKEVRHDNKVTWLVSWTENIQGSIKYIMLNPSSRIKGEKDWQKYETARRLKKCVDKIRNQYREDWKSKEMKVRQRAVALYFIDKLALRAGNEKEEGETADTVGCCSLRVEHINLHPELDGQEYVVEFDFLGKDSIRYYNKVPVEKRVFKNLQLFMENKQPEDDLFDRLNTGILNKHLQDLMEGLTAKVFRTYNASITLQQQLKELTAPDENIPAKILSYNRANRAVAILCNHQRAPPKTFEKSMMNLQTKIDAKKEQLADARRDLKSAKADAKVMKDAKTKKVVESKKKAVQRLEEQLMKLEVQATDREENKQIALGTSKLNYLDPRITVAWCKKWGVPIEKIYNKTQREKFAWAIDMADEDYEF

[9] = Cell cycle arrest in human HCT15 cells assessed as accumulation at G1 phase at 10 uM after 10 hrs by DAPI staining-based cell analyzer (reference value: 61%); assay type: functional; details: HCT-15
[10] = Cell cycle arrest in human HCT15 cells assessed as accumulation at G1 phase at 1 uM after 20 hrs by DAPI staining-based cell analyzer (reference value: 40%); assay type: functional; details: HCT-15
[11] = Antiproliferative activity against human HCT15 cells measured after 72 hrs by CCK8 assay; assay type: functional, cell-based; details: HCT-15, 72 h
[12] = Antiproliferative activity against human T47D cells measured after 72 hrs by CCK8 assay; assay type: functional, cell-based
[13] = Antiproliferative activity against human MCF7 cells measured after 72 hrs by CCK8 assay; assay type: functional, cell-based; details: MCF7, 72 h
[14] = Cell cycle arrest in human HCT15 cells assessed as accumulation at S phase at 10 uM after 5 hrs by DAPI staining-based cell analyzer (reference value: 10%); assay type: functional; details: HCT-15
[15] = Cell cycle arrest in human HCT15 cells assessed as accumulation at G2/M phase at 3 uM after 20 hrs by DAPI staining-based cell analyzer (reference value: 13%); assay type: functional; details: HCT-15
[16] = target: DNA topoisomerase 2-alpha (Homo sapiens) (UniProt P11388); assay: Poison activity at topoisomerase-2 alpha in human HCT15 cells assessed as DNA damage by measuring DNA tail length at 5 uM measured after 24 hrs by alkaline comet assay; assay type: cell-based; details: HCT-15
[17] = Cell cycle arrest in human HCT15 cells assessed as increase in p27kip1 level at 10 uM; assay type: functional, cell-based; details: HCT-15, TDE = time-dependent effect
[18] = Cell cycle arrest in human HCT15 cells assessed as accumulation at G2/M phase at 10 uM after 10 hrs by DAPI staining-based cell analyzer (reference value: 13%); assay type: functional; details: HCT-15
[19] = Cell cycle arrest in human HCT15 cells assessed as accumulation at G2/M phase at 10 uM after 5 hrs by DAPI staining-based cell analyzer (reference value: 13%); assay type: functional; details: HCT-15
[20] = target: DNA topoisomerase 2-alpha (Homo sapiens) (UniProt P11388); assay: Inhibition of human topoisomerase-2 alpha assessed as inhibition of relaxation of supercoiled pBR322 plasmid DNA at 100 uM measured after 1 hr by ethidium bromide staining based agarose gel electrophoresis relative to control
[21] = Cell cycle arrest in human HCT15 cells assessed as accumulation at S phase at 10 uM after 10 hrs by DAPI staining-based cell analyzer (reference value: 10%); assay type: functional; details: HCT-15
[22] = Cell cycle arrest in human HCT15 cells assessed as accumulation at S phase at 3 uM after 20 hrs by DAPI staining-based cell analyzer (reference value: 34%); assay type: functional; details: HCT-15
[23] = Cell cycle arrest in human HCT15 cells assessed as accumulation at S phase at 10 uM after 15 hrs by DAPI staining-based cell analyzer (reference value: 10%); assay type: functional; details: HCT-15
[24] = Cell cycle arrest in human HCT15 cells assessed as decrease in cyclin D1 level at 10 uM; assay type: functional, cell-based; details: HCT-15, TDE = time-dependent effect
[25] = Antiproliferative activity against human DU145 cells measured after 72 hrs by CCK8 assay; assay type: functional, cell-based; details: DU-145, 72 h
[26] = Cell cycle arrest in human HCT15 cells assessed as accumulation at G1 phase at 3 uM after 20 hrs by DAPI staining-based cell analyzer (reference value: 40%); assay type: functional; details: HCT-15
[27] = Cell cycle arrest in human HCT15 cells assessed as accumulation at G2/M phase at 10 uM after 20 hrs by DAPI staining-based cell analyzer (reference value: 13%); assay type: functional; details: HCT-15
[28] = Cell cycle arrest in human HCT15 cells assessed as accumulation at G1 phase at 10 uM after 5 hrs by DAPI staining-based cell analyzer (reference value: 61%); assay type: functional; details: HCT-15
HCT-15 [29] = assay: Induction of apoptosis in human HCT15 cells assessed as increase in cleaved PARP level measured after 24 hrs by Western blot analysis; assay type: functional, cell-based
[30] = Cell cycle arrest in human HCT15 cells assessed as accumulation at G1 phase at 10 uM by DAPI staining based cell analyzer; assay type: functional; details: HCT-15, TDE = time-dependent effect
[31] = Cell cycle arrest in human HCT15 cells assessed as decrease in cyclin D1 level measured after 20 hrs; assay type: functional, cell-based; details: HCT-15
[32] = target: DNA topoisomerase 2-alpha (Homo sapiens) (UniProt P11388); assay: Poison activity at topoisomerase-2 alpha in human HCT15 cells assessed as DNA damage by measuring DNA tail length at 10 uM measured after 24 hrs by alkaline comet assay; assay type: cell-based; details: HCT-15
[33] = target: DNA topoisomerase 2-alpha (Homo sapiens) (UniProt P11388); assay: Inhibition of human topoisomerase-2 alpha assessed as inhibition of relaxation of supercoiled pBR322 plasmid DNA at 20 uM measured after 1 hr by ethidium bromide staining based agarose gel electrophoresis relative to control
[34] = target: T1, DNA topoisomerase 1 (Homo sapiens); assay: Inhibition of human topoisomerase-1 assessed as inhibition of relaxation of supercoiled pBR322 plasmid DNA at 100 uM measured after 1 hr by ethidium bromide staining based agarose gel electrophoresis relative to control
[35] = Cell cycle arrest in human HCT15 cells assessed as accumulation at S phase at 10 uM after 20 hrs by DAPI staining-based cell analyzer (reference value: 10%); assay type: functional; details: HCT-15
[36] = Cell cycle arrest in human HCT15 cells assessed as accumulation at S phase at 1 uM after 20 hrs by DAPI staining-based cell analyzer (reference value: 34%); assay type: functional; details: HCT-15
[37] = Cell cycle arrest in human HCT15 cells assessed as accumulation at G1 phase at 10 uM after 20 hrs by DAPI staining-based cell analyzer (reference value: 61%); assay type: functional; details: HCT-15
[38] = Cell cycle arrest in human HCT15 cells assessed as increase in p27kip1 level measured after 20 hrs; assay type: functional, cell-based; details: HCT-15
[39] = Cell cycle arrest in human HCT15 cells assessed as accumulation at G2/M phase at 1 uM after 20 hrs by DAPI staining-based cell analyzer (reference value: 13%); assay type: functional; details: HCT-15

CCOc1ccc2c(c1)Oc1cc(O)ccc1C21c2ccccc2C(=O)N1/N=C/c1ccccc1[N+](=O)[O-] (centres undefined)
Activity [1]: 20% | Activity [2]: 11% | Activity (HCT-15 [3]): Dose-dependent effect | Activity [4]: 55% | Activity [5]: 68% | Activity (HCT-15 [6]): Dose-dependent effect | inhibition [7]: Active | inhibition [8]: 14.8% | Activity [9]: 67% | Activity [10]: 45% | IC50 [11]: 2.4 µM | IC50 [12]: > 50 µM | IC50 [13]: 11.4 µM | Activity [14]: 8% | Activity [15]: 11% | Activity [16]: 7.72 pixel | Activity [17]: Tde | Activity [18]: 12% | Activity [19]: 11% | inhibition [20]: 62.4% | Activity [21]: 8% | Activity [22]: 24% | Activity [23]: 8% | Activity [24]: Tde | IC50 [25]: 1.43 µM | Activity [26]: 48% | Activity [27]: 11 to 12% | Activity [28]: 64% | Activity (HCT-15 [29]): Dose-dependent effect | Activity [30]: Tde | Activity [31]: Dose-dependent effect | Activity [32]: 8.29 pixel | inhibition [33]: 52.7% | inhibition [34]: 35.6% | Activity [35]: 7% | Activity [36]: 28% | Activity [37]: 70% | Activity [38]: Dose-dependent effect | Activity [39]: 14%
